From patent US20080009500A1, “Alpha-helix mimetics and methods relating to the treatment of fibrotic disorders” (priority 2005, published 2008)

Columns and labels:
[1] = test system: TCF/β-catenin transcription; experiment: Bleomycin model in Bat-Gal transgenic mice, X-Gal staining of lung sections (TCF/catenin-driven beta-galactosidase read-out); type: in vivo
Protocol: (§1) Using this murine model of pulmonary fibrosis in transgenic Bat-Gal mice, ICG-001 (5 mg/Kg/day, administered via minipump) blocked >95% of bleomycin-induced TCF/β-catenin transcription.
These mice have a Beta-Galactosidase transgene driven by a TCF/Catenin driven promoter (i.e. a read out for activated Wnt/catenin signaling). The mice were given intratracheal saline or bleomycin and either treated with ICG-001 (5 mgs/Kg/day subcutaneously) or saline as vehicle control. The mice were sacrificed and the lungs sectioned and stained with X-Gal (blue color) A) intratracheal bleo+saline. B) intracheal bleo+ICG-001 C) saline +saline.
The dose was selected because ICG-001 reduces TCF/β-Catenin driven β-Galactosidase expression >95% at 5 mgs/Kg/day.

[2] = test system: bleomycin induced fibrosis in C57/B16 mice; experiment: Murine model of bleomycin induced pulmonary fibrosis, lung sections stained for collagen (trichrome), body weight, survival; type: in vivo
Protocol: Murine models of bleomycin induced fibrosis have been developed in order to study fibrotic disease progression.
as §1
There is an absence of airway epithelium in lower left compared to upper left (see arrow heads) and extensive collagen deposition (lower left). On the sixth day, either saline (upper right) or ICG-001 (5 mgs/Kg/day) was administered for 10 days after which the mice were sacrificed and sectioned. Of interest is the upper right (saline treatment) showing lack of normal airway epithelialization, extensive collagen deposition and intra-airway hypercellularity (fibroblasts and inflammatory influx).
The procedures were performed using the animal model as described in Example 2 (FIG. 15), and the sectioned lungs were stained for collagen.

S100A4 = experiment: RT-PCR for S100A4 in bleomycin treated mice; type: in vivo; settings: 5 mgs/Kg/day s.c.
Excerpt: (§2) FIGS. 16 and 17 show RT-PCR data for S100A4 (FIG. 16) and collagen1A2 (FIG. 17), which are increased in the bleomycin treated mice (treated with saline control).

collagen1A2 = experiment: RT-PCR for collagen1A2 in bleomycin treated mice; type: in vivo; settings: 5 mgs/Kg/day s.c.
Excerpt: as §2

IPF patient fibroblasts = experiment: Western blots for S100A4 and E-Cadherin on whole cell lysates of cultured IPF fibroblasts; type: cell-based, human
Protocol: Western blots for S100A4 (also know as FSP-1 or fibroblast specific protein-1) and E-Cadherin were performed on whole cell lysates (FIG. 20).

Aquaporin 5 = Aquaporin 5 immunostaining of lung tissue in the bleomycin animal model; type: in vivo, mice; settings: bleomycin and ICG-001 vs bleomycin alone
Protocol: The aquaporins are water channels expressed in a variety of cell types. Aquaporin 5 is involved in the transportation of water across the apical surface of the alveolar epithelium and the epithelia of the submucosal glands in the upper airway and nasopharynx. (Krane, C. M., P.N.A.S. 98:14192-4, 2001; Yang, F. J. Biol. Chem. 278:32173-80, 2003). Because aquaporin 5 is a marker of Type 1 (differentiated) lung epithelium, its expression was assayed in lung tissue treated with bleomycin (FIG. 22A), bleomycin and ICG-001 (FIG. 22B), and saline (FIG. 22C), using the animal model as described in Example 2 (FIG. 15), and immunostaining with an antibody specific for Aquaporin 5.

[3] = C57/B16 mice, bleomycin 5 days, then 5 mgs/Kg/day for 10 days
[4] = bleomycin and ICG-001 treatment
[5] = IPF patient fibroblasts, RPMI 1640+10% FBS, 2 days

O=C1[C@H](Cc2ccc(O)cc2)N2C(=O)CCN(C(=O)NCc3ccccc3)[C@H]2CN1Cc1cccc2ccccc12 [ICG-001]
reduction of TCF/β-Catenin driven β-Galactosidase expression ([1]; 5 mgs/Kg/day): > 95%
bleomycin-induced TCF/β-catenin transcription blocked ([1]; transgenic Bat-Gal mice, 5 mg/Kg/day via minipump): > 95%
mortality ([2]; 5 mg/Kg/day): reduced mortality
disease progression ([2]; 5 mg/Kg/day, judged by mortality, histopathology and endogenous gene expression): not only halted but reversed disease progression
airway appearance in trichrome-stained lung sections [2, 3]: essentially normal
body weight [2, 3]: regained normal body weight
collagen levels in lung sections [2, 3]: normal collagen levels
survival ([2]; C57/B16 mice, bleomycin 5 days, then 5 mgs/Kg/day for 10 days, untreated controls did not survive): survived
alveolar fibrosis (lungs stained for collagen) [2, 4]: prevented alveolar fibrosis
interstitial fibrosis (lungs stained for collagen) [2, 4]: prevented interstitial fibrosis
fibrosis ([2]; over the 25 days of treatment): reversed fibrosis
S100A4 message (RT-PCR) (S100A4): reduced essentially to negative control
collagen1A2 message (RT-PCR) (collagen1A2): reduced essentially to negative control
S100A4 expression (whole cell lysates) (IPF patient fibroblasts; ATCC IPF cells, RPMI1640+10% FBS, 2 days): decreased S100A4 expression
E-cadherin expression at the mRNA level (IPF patient fibroblasts; IPF patient fibroblasts): also true at the mRNA level
E-cadherin expression (Western blot, whole cell lysates) (IPF patient fibroblasts; [5]): increased E-cadherin expression
S100A4 expression (Western blot, whole cell lysates) (IPF patient fibroblasts; [5]): decreased S100A4 expression
aquaporin 5 expression (immunostaining) (Aquaporin 5): greatly increased
